US3969530A, “4-Hydroxy-3,5-di-alkyl-phenyl-propionic acid composition suitable as lipid lowering and anti-diabetic agents” (Hoechst Aktiengesellschaft, priority 1972, dated 1976)

Key:
[1] = in vivo; details: mouse, po, male mice
[2] = test system: serum lipid values; test: Reduction of serum lipid values in normolipemic rats (Table 1); format: in vivo, male rats; details: 8 doses; for Change in percentage of serum cholesterol, column A / Change in percentage of serum triglyceride, column A: A: referred to the initial value of the treated group; for Change in percentage of serum cholesterol, column B / Change in percentage of serum triglyceride, column B: B: referred to untreated control group
Description: 1. Male rats having a normal serum lipid content were being treated for eight days with different daily doses mentioned in Table 1. The values given in that Table stand for a change in the serum concentrations of certain lipid classes.
The doses were administered per os by means of an esophagal sound. Generally, prior to and after the treatment, blood samples were taken and the concentration of cholesterol in the serum was determined according to the method of Lauber and Richterich and that of triglycerides according to the method of Eggstein and Kreutz. In the examples of the following Table 1, the changes in the serum lipid values due to the treatment with the substances of the invention are defined as follows:
a. The changes in percent in the final value of the treated group, referred to the initial value of the treated group, the initial value being 100 per cent, and
b. the change in the final value of the treated group, referred to the final value of an accompanying untreated control group, the untreated group's value being defined as 100 %. Thus, the value given in columns A is the change in percentage referred to the initial value, the value given in columns B is the change in percentage of the treated group, referred to the untreated control group.

[3] = test system: serum lipid concentration; test: Dietetic-medicamentous hyperlipemia (hypercholesteremia) of male rats (Table 2); format: in vivo; details: 100 mg/kg/day, 8 doses, esophagal sound; hyperlipemic diet
Source text: 2. Dietetic-medicamentous hypercholesteremia of male rats
All the animals were fed with a diet food containing 2% of cholesterol, 2% of sodium cholate, 0.3% of methyl-thio-uracil, 20% of coco fat and 44% of cane sugar. The serum lipid concentration of the animals treated with the cited compounds was compared to that of an untreated control group being on the same diet which causes the serum cholesteral concentration to rise within one week to about 10 times the initial value, that of the serum triglycerides to 3 times and that of the phospholipids in the serum to 4 times the initial value. The lipid phosphorus was determined according to the method of Messrs. Boehringer Mannheim W. Germany. At the same time as the diet was offered the cited compounds were administered once a day to groups of rats, each containing 10 animals, over a period of 8 days by means of an esophagal sound. The change in percentage in the serum lipid concentration as compared to the control group (diet without active substance) is indicated in Table 2.

[4] = test system: blood sugar level; test: Blood sugar level in alloxan-diabetic male rats; format: in vivo; details: 100 mg/kg/day per os, 8 days, 20 hours after the last administration, vs untreated group; insulin-substituted
Description: (§1) The hypoglycemic activity had been established as follows, the blood sugar level having been determined by means of an autoanalyzer:
1. On alloxan-diabetic male rats substituted with insulin before the beginning of the test, that were offered food ad libitum, 100 mg/kg/day of 4-hydroxy-3,5-di-t.-butyl-phenylpropionic acid n-octadecyl ester administered per os once a day during 8 successive days lowered the blood sugar level 20 hours after the last administration by -18% as compared with an untreated group.

[5] = test system: blood sugar level; test: Tolerance test with oral glucose in fasted male rats; format: in vivo
Description: as §1
2. In the tolerance test with glucose doses administered per os to male rats that had fasted for 22 hours and that were administered 19 and 3 hours before the glucose administration (1g/kg) per os 100 mg/kg of the test preparation, 4-hydroxy-3,5-di-t.-butyl-phenyl-propionic acid n-octadecyl ester caused a lowering of the blood sugar level by -21% 3 hours after being fed with glucose.

[6] = test system: blood sugar level; test: Blood sugar level in male rats fed fructose doses; format: in vivo; details: 100 mg/kg/day, 3 days pretreatment, 24 hours after the last administration; fructose doses per os
Description: as §1
In the case of male rats having been feed fructose doses per os and pretreated for 3 days with 100 mg/kg/day of the same compound, the blood sugar level was lowered by -17% 24 hours after the last administration.

Structure (SMILES)	LD50 [1] [mg/kg]	Change in percentage of serum cholesterol, column A ([2]; 30 mg/kg/day p.o.) [%]	Change in percentage of serum triglyceride, column A ([2]; 30 mg/kg/day p.o.)	Change in percentage of serum cholesterol, column B ([2]; 30 mg/kg/day p.o.) [%]	Change in percentage of serum triglyceride, column B ([2]; 30 mg/kg/day p.o.) [%]	Change in percentage of serum cholesterol referred to the untreated group [3] [%]	Change in percentage of serum triglyceride, column A ([2]; 10 mg/kg/day p.o.) [%]	Change in percentage of serum triglyceride, column B ([2]; 10 mg/kg/day p.o.) [%]	Change in percentage of serum triglyceride, column A ([2]; 100 mg/kg/day p.o.) [%]	Change in percentage of serum cholesterol, column B ([2]; 100 mg/kg/day p.o.) [%]	Change in percentage of serum triglyceride, column B ([2]; 100 mg/kg/day p.o.) [%]	lowering of the blood sugar level [4] [%]	lowering of the blood sugar level ([5]; 100 mg/kg per os 19 and 3 hours before glucose (1g/kg), 3 hours after glucose, fasted 22 hours) [%]	lowering of the blood sugar level compared with phenformin ([5]; 100 mg/kg per os, comparison preparation phenformin)	lowering of the blood sugar level [6] [%]	Change in percentage of serum cholesterol, column A ([2]; 100 mg/kg/day p.o.) [%]
CCOC(=O)C(C)(C)Oc1ccc(Cl)cc1 [Clofibrat, reference compound]	2000 to 2500	-7	+4%	-7	-13	0										
CC(C)(C)c1cc(CCC(=O)O)cc(C(C)(C)C)c1O [Example 2, 4-hydroxy-3,5-di-t.-butyl-phenyl-propionic acid]			-23%		-38		-21	-26	-32	-12	-38					
CCCCCCCCCCCCCCCCCCOC(=O)CCc1cc(C(C)(C)C)c(O)c(C(C)(C)C)c1 [Example 3, 4-hydroxy-3,5-di-t.-butyl-phenyl-propionic acid-n-octadecyl ester]	8000				-25				-33		-16	-18	-21	in the same order of magnitude as that obtained with the comparison preparation phenformin	-17	
COC(=O)CCc1cc(C(C)(C)C)c(O)c(C(C)(C)C)c1 [Example 5, 4-hydroxy-3,5-di-t.-butylphenyl-propionic acid methyl ester]					-42			-3	-60		-71					-3
CCCCOC(=O)CCc1cc(C(C)(C)C)c(O)c(C(C)(C)C)c1 [Example 6, 4-hydroxy-3,5-di-t.-butylphenyl-propionic acid-n-butyl ester]					-27			-17	-54		-58					-10
CC(C)(C)c1cc(CCC(=O)OCC(COC(=O)CCc2cc(C(C)(C)C)c(O)c(C(C)(C)C)c2)(COC(=O)CCc2cc(C(C)(C)C)c(O)c(C(C)(C)C)c2)COC(=O)CCc2cc(C(C)(C)C)c(O)c(C(C)(C)C)c2)cc(C(C)(C)C)c1O [Example 7, Tetra-(4-hydroxy-3,5-di-t.-butylphenyl-propionic acid)-pentaerythritol ester]					-27					-7	-17					-5
